This experiment has as its target human SARM1(50-724) (Homo sapiens (Human), UniProt Q6SZW1). In words: SARM1 NAD hydrolase biological assay (HPLC readout of NAD and NAM peak areas). It is filed as biochemical. The following applies: 40 nM human SARM1(50-724), 0.3 mM NMN, 20 μM NAD, 60 minutes at room temperature; class symbols; read-out: Average IC50. On the procedure: The reaction was incubated at room temperature for 60 minutes and quenched with 20 μL of 0.4% formic acid. […] Total run time for each sample was 4 minutes. The run was isocratic with 1.5% methanol in 40 mM ammonium acetate pH 6.0. Samples were run at a flow rate of 0.8 ml/min at 55° C. Peak areas of NAD and NAM were determined using OpenLAB CDS (Chem Station edition) software. For dose-response, the compound was diluted serially 1:3 in DMSO and added to the reaction starting at a final compound concentration of 100 μM in 1% DMSO.
human SARM1(50-724), sequence (Q6SZW1 50-724): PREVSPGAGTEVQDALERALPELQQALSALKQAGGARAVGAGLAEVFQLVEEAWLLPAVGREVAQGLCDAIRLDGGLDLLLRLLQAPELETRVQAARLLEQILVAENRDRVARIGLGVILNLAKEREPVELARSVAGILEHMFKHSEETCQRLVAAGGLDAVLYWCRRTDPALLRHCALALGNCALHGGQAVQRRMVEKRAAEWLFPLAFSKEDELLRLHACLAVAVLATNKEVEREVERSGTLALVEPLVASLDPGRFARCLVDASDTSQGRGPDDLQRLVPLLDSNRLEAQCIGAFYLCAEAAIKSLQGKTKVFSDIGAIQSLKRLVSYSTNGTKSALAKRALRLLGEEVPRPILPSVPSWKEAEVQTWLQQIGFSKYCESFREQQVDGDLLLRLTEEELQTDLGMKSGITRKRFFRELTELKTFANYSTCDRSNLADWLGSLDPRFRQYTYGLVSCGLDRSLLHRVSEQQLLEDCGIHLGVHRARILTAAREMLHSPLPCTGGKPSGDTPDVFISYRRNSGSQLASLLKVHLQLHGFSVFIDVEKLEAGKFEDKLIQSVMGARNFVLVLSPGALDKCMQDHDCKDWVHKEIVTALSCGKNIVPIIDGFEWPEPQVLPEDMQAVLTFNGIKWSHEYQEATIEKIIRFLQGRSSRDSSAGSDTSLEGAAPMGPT
The IC50 is the concentration needed to halve the response being measured. As for `OC(c1nc(Cc2ccncc2)c[nH]1)(C(F)(F)F)C(F)(F)F` [Example 39, 1,1,1,3,3,3-Hexafluoro-2-(4-(pyridin-4-ylmethyl)-1H-imidazol-2-yl)propan-2-ol], the IC50 fell in the range of 1 to 10 µM. For the compound `Fc1cnccc1Cc1c[nH]c(CC(F)(F)F)n1` [Example 36, 3-Fluoro-4-((2-(2,2,2-trifluoroethyl)-1H-imidazol-4-yl)methyl)pyridine], the half-maximal inhibitory concentration (IC50) was less than 1 µM. The result for `OC(c1ncc(Cc2ccncc2)[nH]1)(c1cncs1)C(F)(F)F` (single isomer, unassigned) [Example 26] reads 10 to 100 µM; that for `NC(c1nc(Cc2ccncc2)cs1)C(F)(F)F` (single isomer, unassigned) [Example 19], 10 to 100 µM; that for `CN(C)C(c1ncc(Cc2ccncc2)[nH]1)C(F)(F)F` (single isomer, unassigned) [Example 17], 10 to 100 µM. On to `CC(O)(c1nc(Cc2ccncc2)c[nH]1)C(F)(F)F` (racemic) [Example 40, (rac)-1,1,1-Trifluoro-2-(4-(pyridin-4-ylmethyl)-1H-imidazol-2-yl)propan-2-ol], for which the IC50 was in the range of 1 to 10 µM.

Values taken from US11629136B1, “Substituted pyridine derivatives as SARM1 inhibitors” (Nura Bio, Inc., priority 2021, dated 2023).
